# Source: patent publication US9284292B2, “Sialochimeric compounds” (THERAPICON S.R.L., priority 2009, dated 2016)
# What was measured:
# [1] = test system: influenza virus A/H1N1 (A/New Caledonia/20/1999); format: cell-based, influenza virus type A
# [2] = test system: influenza virus B (B/Parma/1/07); assay: microbe, parasite or virus in culture; format: cell-based; conditions: study I; for EC50: 72 h, MDCK cells, 50% plaque reduction vs control, 3 days
# [3] = test system: influenza virus A/H1N1 (A/New Caledonia/20/99); assay: organism not typed; format: cell-based, influenza virus type A; conditions: MDCK, 72 h, read-out: EC50 vs A/H1N1
# [4] = test system: influenza virus A/H3N2 (A/Panama/2007/99); assay: organism not typed; format: cell-based, influenza virus type A; conditions: MDCK, 72 h, read-out: EC50 vs A/H3N2
# [5] = in vivo; cited from earlier work
SMILES,EC50 [1],EC50 [2],antiviral activity versus virus type A relative to virus type B ([2]; higher versus type A than type B),EC50 [3],EC50 [4],absorbed by oral route [5]
"CCOC(=O)C1=CC(OC(CC)CC)C(NC(C)=O)C(NC2(C(=O)O)CC(O)C(NC(C)=O)C(CNC34CC5CC(CC(C5)C3)C4)O2)C1 (stereo not drawn) [THE 08/01, Amantadine-C7-Neu5Ac—C16H28N2O4]",16 µM,126 µM,10 folds,9.9 µM,15.4 µM,
"CC(=O)NC1C(O)CC(NC(=N)NC2C=C(C(=O)O)OC(C(O)C(O)CO)C2NC(C)=O)(C(=O)O)OC1CNC12CC3CC(CC(C3)C1)C2 (stereo not drawn) [THE 10/01, Amantadine-C7-Neu5Ac—C12H20N4O7]",,99.5 µM,,11.7 µM,18.3 µM,
CC(=O)N[C@H]1[C@H]([C@H](O)[C@H](O)CO)OC(C(=O)O)=C[C@@H]1N=C(N)N [zanamivir],,,,,,about 2%
